Structures are written as SMILES. Like-named read-outs stand apart in the source and are kept apart here.

Experimental findings from patent US10206394B2, “Herbicidal compounds” (Syngenta Participations AG, priority 2014, dated 2019) are described below.

Assay in all cases: Glasshouse assay for herbicidal activity (pre- and post-emergence), percentage phytotoxicity
What all share (assay type): in vivo

Experiment [1] has as its system Alopecurus myosuroides (ALOMY). Particulars: Alopecurus myosuroides. In a few lines:
(§1)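 Herbicide was applied to potted plants sown in standard soil, one day after sowing for PRE and after about 12 days for POST. Visual percentage damage ratings followed at 15 DAA (POST) and 20 DAA (PRE).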

Experiment [2] deals with Lolium perenne (LOLPE). Particulars: Lolium perenne. An outline of the steps: as §1
Experiment [3] has as its system Echinochloa crus-galli (ECHCG). The following applies: Echinochloa crus-galli. An outline of the steps:
as §1

Experiment [4] deals with Avena fatua (AVEFA). Particulars: Avena fatua. An outline of the steps: as §1
Where [5] appears, read: post-emergence, 360 h, POST-emergence, rate 250 g/ha, visual score 15 DAA (100%=total damage, 0%=no damage), read-out: Post-emergence herbicidal activity (percentage phytotoxicity) ALOMY POST.
Setting [6] is: pre-emergence, 480 h, PRE-emergence, rate 250 g/ha, visual score 20 DAA (100%=total damage, 0%=no damage), read-out: Pre-emergence herbicidal activity (percentage phytotoxicity) ALOMY PRE.
The mark [7] stands for this setting: post-emergence, 360 h, POST-emergence, rate 250 g/ha, visual score 15 DAA (100%=total damage, 0%=no damage), read-out: Post-emergence herbicidal activity (percentage phytotoxicity) LOLPE POST.
Setting [8] is: pre-emergence, 480 h, PRE-emergence, rate 250 g/ha, visual score 20 DAA (100%=total damage, 0%=no damage), read-out: Pre-emergence herbicidal activity (percentage phytotoxicity) LOLPE PRE.
[9] abbreviates: post-emergence, 360 h, POST-emergence, rate 250 g/ha, visual score 15 DAA (100%=total damage, 0%=no damage), read-out: Post-emergence herbicidal activity (percentage phytotoxicity) ECHCG POST.
Setting [10] is: pre-emergence, 480 h, PRE-emergence, rate 250 g/ha, visual score 20 DAA (100%=total damage, 0%=no damage), read-out: Pre-emergence herbicidal activity (percentage phytotoxicity) ECHCG PRE.
The mark [11] stands for this setting: post-emergence, 360 h, POST-emergence, rate 250 g/ha, visual score 15 DAA (100%=total damage, 0%=no damage), read-out: Post-emergence herbicidal activity (percentage phytotoxicity) AVEFA POST.
Setting [12] is: pre-emergence, 480 h, PRE-emergence, rate 250 g/ha, visual score 20 DAA (100%=total damage, 0%=no damage), read-out: Pre-emergence herbicidal activity (percentage phytotoxicity) AVEFA PRE.
Where [13] appears, read: post-emergence, 360 h, Rate 250 g/ha, post-emergence, assessed visually 15 DAA, 100%=total damage, 0%=no damage, read-out: Post-emergence herbicidal activity (percentage phytotoxicity) ALOMY POST.
The mark [14] stands for this setting: pre-emergence, 480 h, Rate 250 g/ha, pre-emergence, assessed visually 20 DAA, 100%=total damage, 0%=no damage, read-out: Pre-emergence herbicidal activity (percentage phytotoxicity) ALOMY PRE.
Setting [15] is: post-emergence, 360 h, Rate 250 g/ha, post-emergence, assessed visually 15 DAA, 100%=total damage, 0%=no damage, read-out: Post-emergence herbicidal activity (percentage phytotoxicity) LOLPE POST.
Where [16] appears, read: pre-emergence, 480 h, Rate 250 g/ha, pre-emergence, assessed visually 20 DAA, 100%=total damage, 0%=no damage, read-out: Pre-emergence herbicidal activity (percentage phytotoxicity) LOLPE PRE.
Setting [17] is: post-emergence, 360 h, Rate 250 g/ha, post-emergence, assessed visually 15 DAA, 100%=total damage, 0%=no damage, read-out: Post-emergence herbicidal activity (percentage phytotoxicity) ECHCG POST.
Setting [18] is: pre-emergence, 480 h, Rate 250 g/ha, pre-emergence, assessed visually 20 DAA, 100%=total damage, 0%=no damage, read-out: Pre-emergence herbicidal activity (percentage phytotoxicity) ECHCG PRE.
Setting [19] is: post-emergence, 360 h, Rate 250 g/ha, post-emergence, assessed visually 15 DAA, 100%=total damage, 0%=no damage, read-out: Post-emergence herbicidal activity (percentage phytotoxicity) AVEFA POST.
Where [20] appears, read: pre-emergence, 480 h, Rate 250 g/ha, pre-emergence, assessed visually 20 DAA, 100%=total damage, 0%=no damage, read-out: Pre-emergence herbicidal activity (percentage phytotoxicity) AVEFA PRE.
Where [21] appears, read: post-emergence, 360 h, 250 g/ha, post-emergence, 15 DAA, visual assessment (100%=total damage, 0%=no damage), read-out: Post-emergence herbicidal activity (percentage phytotoxicity) ALOMY POST.
[22] abbreviates: pre-emergence, 480 h, 250 g/ha, pre-emergence, 20 DAA, visual assessment (100%=total damage, 0%=no damage), read-out: Pre-emergence herbicidal activity (percentage phytotoxicity) ALOMY PRE.
Where [23] appears, read: post-emergence, 360 h, 250 g/ha, post-emergence, 15 DAA, visual assessment (100%=total damage, 0%=no damage), read-out: Post-emergence herbicidal activity (percentage phytotoxicity) LOLPE POST.
Setting [24] is: pre-emergence, 480 h, 250 g/ha, pre-emergence, 20 DAA, visual assessment (100%=total damage, 0%=no damage), read-out: Pre-emergence herbicidal activity (percentage phytotoxicity) LOLPE PRE.
The mark [25] stands for this setting: post-emergence, 360 h, 250 g/ha, post-emergence, 15 DAA, visual assessment (100%=total damage, 0%=no damage), read-out: Post-emergence herbicidal activity (percentage phytotoxicity) ECHCG POST.
[26] abbreviates: pre-emergence, 480 h, 250 g/ha, pre-emergence, 20 DAA, visual assessment (100%=total damage, 0%=no damage), read-out: Pre-emergence herbicidal activity (percentage phytotoxicity) ECHCG PRE.
[27] abbreviates: post-emergence, 360 h, 250 g/ha, post-emergence, 15 DAA, visual assessment (100%=total damage, 0%=no damage), read-out: Post-emergence herbicidal activity (percentage phytotoxicity) AVEFA POST.
The mark [28] stands for this setting: pre-emergence, 480 h, 250 g/ha, pre-emergence, 20 DAA, visual assessment (100%=total damage, 0%=no damage), read-out: Pre-emergence herbicidal activity (percentage phytotoxicity) AVEFA PRE.
Where [29] appears, read: post-emergence, 360 h, post-emergence, 250 g/ha, 15 DAA, visual score (100%=total damage; 0%=no damage), read-out: ALOMY POST herbicidal activity (percentage phytotoxicity).
The mark [30] stands for this setting: post-emergence, 360 h, post-emergence, 250 g/ha, 15 DAA, visual score (100%=total damage; 0%=no damage), read-out: LOLPE POST herbicidal activity (percentage phytotoxicity).
[31] abbreviates: post-emergence, 360 h, post-emergence, 250 g/ha, 15 DAA, visual score (100%=total damage; 0%=no damage), read-out: ECHCG POST herbicidal activity (percentage phytotoxicity).
The mark [32] stands for this setting: post-emergence, 360 h, post-emergence, 250 g/ha, 15 DAA, visual score (100%=total damage; 0%=no damage), read-out: AVEFA POST herbicidal activity (percentage phytotoxicity).

Turning to `C=CC(C)NC(=O)CC1CC(=O)C(c2c(C)cc(-c3ncc(F)cn3)cc2C)C1=O` (centres unmarked) [Compound B328], the pest or weed control at 250 g/ha in experiment [1] (setting [5]), in experiment [1] (setting [6]), in experiment [2] (setting [7]), in experiment [2] (setting [8]), in experiment [3] (setting [9]) and in experiment [3] (setting [10]) was 100% in each case. The pest or weed control at 250 g/ha in experiment [4] (setting [11]) and in experiment [4] (setting [12]) was 100% throughout.
For the molecule `C#CCNC(=O)CC1CC(=O)C(c2c(C)cc(C#CC)cc2C)C1=O` (centres unmarked) [Compound A28], the pest or weed control at 250 g/ha in experiment [1] (setting [13]) was 100%; in experiment [1] (setting [14]), 100%; in experiment [2] (setting [15]), 100%; in experiment [2] (setting [16]), 90%; in experiment [3] (setting [17]), 100%; in experiment [3] (setting [18]), 90%. For the same molecule, the pest or weed control at 250 g/ha in experiment [4] (setting [19]) and in experiment [4] (setting [20]) was 100% in each case.
Consider `Cc1cc(-c2ncc(F)cc2F)cc(C)c1C1C(=O)CC(CC(=O)NCc2cccc(Cl)c2)C1=O` (centres unmarked) [Compound B33], for which the pest or weed control at 250 g/ha in experiment [1] (setting [21]) came out at 90%; in experiment [1] (setting [22]), 100%; in experiment [2] (setting [23]) it was 90%; in experiment [2] (setting [24]) it was 100%; in experiment [3] (setting [25]) it was 100%; in experiment [3] (setting [26]), 100%. The pest or weed control at 250 g/ha in experiment [4] (setting [27]) and in experiment [4] (setting [28]) was 100% throughout.
Regarding `Cc1cc(C)c(C2C(=O)CC(CC(=O)NC3=NOC(C)(C)C3)C2=O)c(C)c1` (centres unmarked) [Compound B42], the pest or weed control at 250 g/ha in experiment [1] (setting [21]) worked out at 60%; in experiment [1] (setting [22]) it was 0%; in experiment [2] (setting [23]), 40%; in experiment [2] (setting [24]), 0%; in experiment [3] (setting [25]), 0%; in experiment [3] (setting [26]) it was 0%. For the same molecule, the pest or weed control at 250 g/ha in experiment [4] (setting [27]) came out at 60%; in experiment [4] (setting [28]), 0%.
`COc1ccc(CNC(=O)CC2CC(=O)C(c3c(C)cc(OCC(F)(F)F)cc3C)C2=O)cc1` (centres unmarked) [Compound B206]: the pest or weed control at 250 g/ha was 90% in experiment [1] (setting [5]); 80% in experiment [1] (setting [6]); 90% in experiment [2] (setting [7]); 80% in experiment [2] (setting [8]); 90% in experiment [3] (setting [9]); 90% in experiment [3] (setting [10]). Besides, the pest or weed control at 250 g/ha in experiment [4] (setting [11]) came to 90%; in experiment [4] (setting [12]) it was 70%.
Take `Cc1cc(C)c(C2C(=O)CC(C(C)C(=O)NC(C)(C)C)C2=O)c(C)c1` (centres unmarked) [Compound A164]: the pest or weed control at 250 g/ha is 70% in experiment [1] (setting [13]); 70% in experiment [1] (setting [14]); 60% in experiment [2] (setting [15]); 60% in experiment [2] (setting [16]); 70% in experiment [3] (setting [17]); 70% in experiment [3] (setting [18]). In addition, the values for the pest or weed control at 250 g/ha in experiment [4] (setting [19]) and in experiment [4] (setting [20]) were 70% and 10%, respectively.
Turning to `Cc1cc(C)c(C2C(=O)CC(CC(=O)NCC3CSC3)C2=O)c(C)c1` (centres unmarked) [Compound A174], the pest or weed control at 250 g/ha came out at 40% in experiment [1] (setting [29]), 0% in experiment [2] (setting [30]), 10% in experiment [3] (setting [31]) and 0% in experiment [4] (setting [32]).
As for `Cc1cc(-c2ncc(F)cn2)cc(C)c1C1C(=O)CC(CC(=O)NCc2cccs2)C1=O` (centres unmarked) [Compound A141], the pest or weed control at 250 g/ha is 90% in experiment [1] (setting [13]); 90% in experiment [1] (setting [14]); 90% in experiment [2] (setting [15]); 100% in experiment [2] (setting [16]); 100% in experiment [3] (setting [17]); 100% in experiment [3] (setting [18]). In addition, the results for the pest or weed control at 250 g/ha in experiment [4] (setting [19]) and in experiment [4] (setting [20]) were 100% and 90%, respectively.
In the case of `Cc1cc(C)c(C2C(=O)CC(CC(=O)NCC3CCC3)C2=O)c(C)c1` (centres unmarked) [Compound A184], the pest or weed control at 250 g/ha was found to be 90% in experiment [1] (setting [29]); 90% in experiment [1] (pre-emergence, 480 h, pre-emergence, 250 g/ha, 20 DAA, visual score (100%=total damage; 0%=no damage), read-out: ALOMY PRE herbicidal activity (percentage phytotoxicity)); 80% in experiment [2] (setting [30]); 90% in experiment [2] (pre-emergence, 480 h, pre-emergence, 250 g/ha, 20 DAA, visual score (100%=total damage; 0%=no damage), read-out: LOLPE PRE herbicidal activity (percentage phytotoxicity)); 90% in experiment [3] (setting [31]); 90% in experiment [3] (pre-emergence, 480 h, pre-emergence, 250 g/ha, 20 DAA, visual score (100%=total damage; 0%=no damage), read-out: ECHCG PRE herbicidal activity (percentage phytotoxicity)). For the same molecule, the pest or weed control at 250 g/ha stood at 70% in experiment [4] (setting [32]) and 0% in experiment [4] (pre-emergence, 480 h, pre-emergence, 250 g/ha, 20 DAA, visual score (100%=total damage; 0%=no damage), read-out: AVEFA PRE herbicidal activity (percentage phytotoxicity)).
